The target of this experiment is r-InsP3R-3 (recombinant rat type 3 InsP3R) (Rattus norvegicus, UniProt Q63269). Description: single-channel patch clamp of outer nuclear membrane of isolated oocyte nuclei. The experiment is classed as cell-based.

As usually defined, the EC50 is the midpoint of the concentration-response curve.

Chain of r-InsP3R-3 (recombinant rat type 3 InsP3R) (Q63269 whole entry): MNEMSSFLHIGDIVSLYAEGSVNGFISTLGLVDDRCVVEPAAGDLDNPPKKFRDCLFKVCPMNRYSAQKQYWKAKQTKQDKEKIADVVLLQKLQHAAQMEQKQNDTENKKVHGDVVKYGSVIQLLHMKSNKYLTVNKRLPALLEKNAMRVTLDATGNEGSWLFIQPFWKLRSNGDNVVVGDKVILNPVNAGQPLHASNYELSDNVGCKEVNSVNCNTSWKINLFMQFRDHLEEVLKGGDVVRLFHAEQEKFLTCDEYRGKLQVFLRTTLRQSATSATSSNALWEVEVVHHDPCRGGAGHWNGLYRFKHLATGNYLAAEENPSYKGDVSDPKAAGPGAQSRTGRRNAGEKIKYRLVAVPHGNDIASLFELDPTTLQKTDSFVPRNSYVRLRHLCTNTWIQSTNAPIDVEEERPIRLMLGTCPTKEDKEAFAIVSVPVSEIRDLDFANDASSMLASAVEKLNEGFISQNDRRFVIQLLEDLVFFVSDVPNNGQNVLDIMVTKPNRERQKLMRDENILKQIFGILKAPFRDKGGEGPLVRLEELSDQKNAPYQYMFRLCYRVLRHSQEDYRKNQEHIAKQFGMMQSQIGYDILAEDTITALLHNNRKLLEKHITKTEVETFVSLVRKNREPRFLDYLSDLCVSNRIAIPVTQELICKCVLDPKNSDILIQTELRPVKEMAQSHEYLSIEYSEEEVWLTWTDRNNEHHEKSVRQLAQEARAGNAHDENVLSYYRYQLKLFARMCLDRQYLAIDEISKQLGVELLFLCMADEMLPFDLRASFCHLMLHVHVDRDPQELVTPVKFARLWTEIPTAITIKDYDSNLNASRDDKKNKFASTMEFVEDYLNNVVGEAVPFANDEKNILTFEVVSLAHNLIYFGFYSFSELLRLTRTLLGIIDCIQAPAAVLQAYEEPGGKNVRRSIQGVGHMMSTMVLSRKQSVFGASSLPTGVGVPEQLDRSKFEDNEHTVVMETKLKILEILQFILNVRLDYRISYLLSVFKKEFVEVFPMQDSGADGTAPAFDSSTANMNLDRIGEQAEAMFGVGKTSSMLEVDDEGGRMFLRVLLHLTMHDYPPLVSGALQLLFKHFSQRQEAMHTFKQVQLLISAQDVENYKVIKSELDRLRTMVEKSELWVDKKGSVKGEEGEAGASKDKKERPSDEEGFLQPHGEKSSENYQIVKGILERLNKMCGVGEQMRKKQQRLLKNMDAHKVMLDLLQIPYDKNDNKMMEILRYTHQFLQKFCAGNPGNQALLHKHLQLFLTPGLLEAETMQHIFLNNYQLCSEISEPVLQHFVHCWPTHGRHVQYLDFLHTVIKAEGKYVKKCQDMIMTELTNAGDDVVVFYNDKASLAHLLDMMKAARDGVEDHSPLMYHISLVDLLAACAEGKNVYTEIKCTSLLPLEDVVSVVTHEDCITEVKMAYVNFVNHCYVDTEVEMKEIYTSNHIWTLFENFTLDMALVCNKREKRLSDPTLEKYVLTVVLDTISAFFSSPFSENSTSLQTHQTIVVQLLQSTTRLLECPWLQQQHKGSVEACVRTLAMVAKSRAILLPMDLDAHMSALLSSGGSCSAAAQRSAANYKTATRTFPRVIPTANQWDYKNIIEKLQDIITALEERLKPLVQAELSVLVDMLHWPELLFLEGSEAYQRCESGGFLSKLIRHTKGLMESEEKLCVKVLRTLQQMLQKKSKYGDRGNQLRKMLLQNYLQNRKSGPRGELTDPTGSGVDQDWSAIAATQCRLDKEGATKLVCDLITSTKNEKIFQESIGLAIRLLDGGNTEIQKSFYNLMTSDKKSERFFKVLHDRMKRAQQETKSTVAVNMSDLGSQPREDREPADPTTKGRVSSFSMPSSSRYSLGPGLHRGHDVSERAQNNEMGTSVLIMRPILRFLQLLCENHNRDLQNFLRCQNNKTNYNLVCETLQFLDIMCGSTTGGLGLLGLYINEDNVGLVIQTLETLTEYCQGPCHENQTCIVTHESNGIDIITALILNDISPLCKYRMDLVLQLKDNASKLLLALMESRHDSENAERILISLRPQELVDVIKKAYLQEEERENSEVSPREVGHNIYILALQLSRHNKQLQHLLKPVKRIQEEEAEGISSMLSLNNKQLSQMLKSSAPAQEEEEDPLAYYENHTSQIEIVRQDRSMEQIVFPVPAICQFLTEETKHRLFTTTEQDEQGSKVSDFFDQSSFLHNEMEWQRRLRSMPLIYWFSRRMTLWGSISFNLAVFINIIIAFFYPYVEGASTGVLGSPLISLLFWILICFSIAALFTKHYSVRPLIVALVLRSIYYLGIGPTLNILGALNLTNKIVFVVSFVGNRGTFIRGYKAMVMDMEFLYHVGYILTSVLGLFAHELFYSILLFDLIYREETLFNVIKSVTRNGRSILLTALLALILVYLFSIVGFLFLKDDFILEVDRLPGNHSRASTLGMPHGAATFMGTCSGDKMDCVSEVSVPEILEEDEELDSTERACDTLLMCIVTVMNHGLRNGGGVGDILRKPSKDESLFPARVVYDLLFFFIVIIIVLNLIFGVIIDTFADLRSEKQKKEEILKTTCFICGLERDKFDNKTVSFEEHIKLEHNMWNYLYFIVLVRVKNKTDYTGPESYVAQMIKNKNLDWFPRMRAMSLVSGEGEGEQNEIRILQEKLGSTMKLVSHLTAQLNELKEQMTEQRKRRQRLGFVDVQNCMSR

As for `O=P(O)(O)O[C@@H]1[C@H](O)[C@H](O)[C@@H](OP(=O)(O)O)[C@H](OP(=O)(O)O)[C@H]1O` [InsP3], the EC50 was 55 ± 6 nM.
